According to patent US20250129033A1, “METAP2 INHIBITORS AND USES THEREOF” (Yissum Research Development Company of the Hebrew …, priority 2022, published 2025):

What was measured:
[1] = target: T1, recombinant human methionine aminopeptidase 2 (Homo sapiens, UniProt P50579); test: Enzymatic activity assay on recombinant human MetAp2 (L-Met-AMC); format: biochemical; conditions: 2.5 μM, over the course of 1 h, vs untreated control
T1 construct: purchased bio-techne 3795-ZN
Protocol: The enzymatic assay was performed using 5 μg protein per sample as described previously. To test the inhibitory effect of AD-3281, at the same conditions, AD-3281 was also added to 0.33 μg recombinant human methionine aminopeptidase 2 obtained from bio-techne (USA, 3795-ZN), samples were incubated with the inhibitor for 15 min at RT before adding the substrate. The reaction was started by adding 250 μM L-Met-AMC as a substrate. An increase of fluorescence, due to substrate degradation during the enzymatic assay, was measured every 20 seconds for 1 h and 30 min at 37° C. using a plate reader (Wallac 1420 VICTOR plate reader, Perkin-Elmer Life Sciences, USA). The assay was carried out on a 96-well plate on ice and it was performed in an assay buffer (pH 7.5) containing 50 mM HEPES, 0.1 mM CoCl2, 100 mM NaCl and 1 mg/mL PEG 6000, in a final volume of 100 μL.
A375 and MDA-MB-231 were sub-cultivated using trypsin, then centrifuged and counted. […] The protein content of the supernatant was determined according to the Bradford protein assay using BSA as the standard. […] An increase of fluorescence, due to substrate degradation during the enzymatic assay, was measured every 20 seconds for 1 h and 30 min at 37° C. using a plate reader (Wallac 1420 VICTOR plate reader, Perkin-Elmer Life Sciences, USA). […]

A375 cells = test: A375 proliferation assay (MTT); format: cell-based, human; conditions: 1-100 μM, 72 h, dose-dependent
Protocol: Human Umbilical Vein Endothelial Cells (HUVECs) or human melanoma cell line (A375) were used to validate the ability of the compound to suppress endothelial cell proliferation. Each 1500 A375 cells/well or 2000 HUVEC cells/well were seeded in a 96 wells plate and allowed to adhere to the plate for few hours. Compounds were then added to the cells at concentration range of 0.05-10 μM (<0.1% DMSO). Cells were then incubated for additional 72 hours and MTT was done (2 to 3 h at 37° C.). The dye was solubilized with DMSO and the absorbance was determined at 570 nm.
A375 were seeded (2000 cells/well) exposed to TNP-470 and to arrange concentrations of AD-3281 (1-100 μM) cells were incubated for 72 h at 37° C., After incubation, MTT (Sigma Aldrich, St. Louis City, MO, USA) was added (0.5 mg/mL) into each well for viability detection and incubated at 37° C. and 5% CO2 for 40 minutes. The absorbance was measured at 540 nm using a plate reader (Wallac 1420 VICTOR plate reader, Perkin-Elmer Life Sciences, USA). The proliferation of HUVECs was measured under the same conditions. HUVECs were seeded (3000 cells/well) in 96-well plates […]

T1 sequence (P50579 whole entry): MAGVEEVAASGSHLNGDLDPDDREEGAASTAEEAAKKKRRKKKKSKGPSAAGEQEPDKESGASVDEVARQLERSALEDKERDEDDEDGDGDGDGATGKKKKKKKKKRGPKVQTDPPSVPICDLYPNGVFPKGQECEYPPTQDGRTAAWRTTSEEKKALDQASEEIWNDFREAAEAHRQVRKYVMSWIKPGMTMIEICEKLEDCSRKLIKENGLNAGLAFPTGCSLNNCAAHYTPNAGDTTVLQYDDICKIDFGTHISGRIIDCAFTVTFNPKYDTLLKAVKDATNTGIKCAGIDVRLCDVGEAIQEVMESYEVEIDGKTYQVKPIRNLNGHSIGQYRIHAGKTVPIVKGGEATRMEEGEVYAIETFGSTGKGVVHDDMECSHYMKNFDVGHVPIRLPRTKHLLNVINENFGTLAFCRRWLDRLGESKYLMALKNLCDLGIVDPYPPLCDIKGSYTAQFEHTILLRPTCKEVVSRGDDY

**Q.** What does the source list for `COC1C(OC(=O)CC23CC4CC(CC(C4)C2)C3)CCC2(CO2)C1C1(C)OC1CC=C(C)C` (centres unmarked) [AD-3281, Fumagillol-1-adamantylacetate]?
**A.** inhibition of rhMetAp2 enzymatic activity [1]: 95%; reduction in A375 cancer cell proliferation (A375 cells): 37-63%
